The supplement of paper PMC12137928
Where a name gives a salt, the structure may show the parent alone.

Test system: HCT116
Settings: 72 h
Outline: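 Each well of the 1536-well plates received 250 HCT116 cells, which attached over 5 h. Luminescence was measured with CellTiter-Glo, scaled with vehicle as 0% and positive control as -100%, and pattern-corrected. A four-parameter Hill fit yielded IC50 and maximal efficacy.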

SMILES | IC50 cell viability (ICRF193 0 nM) | IC50 cell viability (ICRF193 200 nM)
Nc1ccc(C(=O)O)cc1 [4-Aminobenzoic acid] | > 45.8 µM | > 45.8 µM
Nc1ccncc1 [4-Aminopyridine] | > 45.8 µM | > 45.8 µM
C[C@]12CCC(=O)C=C1CC[C@@H]1[C@@H]2CC[C@]2(C)C(=O)CC[C@@H]12 [4-Androstene-3,17-dione] | > 45.8 µM | > 45.8 µM
Cc1cc(O)cc(C)c1Cl [4-Chloro-3,5-dimethylphenol] | > 45.8 µM | > 45.8 µM
Cc1cc(O)ccc1Cl [4-Chloro-3-methylphenol] | > 45.8 µM | > 45.8 µM
Oc1ccc(Cl)cc1 [4-Chlorophenol] | > 45.8 µM | > 45.8 µM
Cc1c(N(C)C)c(=O)n(-c2ccccc2)n1C [4-Dimethylaminoantipyrine] | > 45.8 µM | > 45.8 µM
CCCCCCc1ccc(O)cc1O [4-Hexylresorcinol] | > 45.8 µM | > 45.8 µM
O=[N+]([O-])c1cc([As](=O)(O)O)ccc1O [4-Hydroxy-3-nitrophenylarsonic acid] | > 45.8 µM | > 45.8 µM
COc1ccc(/C=C/C(=O)O)cc1 [4-Methoxycinnamic acid] | > 45.8 µM | > 45.8 µM
COc1ccc(O)cc1 [4-Methoxyphenol] | > 45.8 µM | > 45.8 µM
Cc1cc(=O)oc2cc(O)ccc12 [4-Methylumbelliferone] | > 45.8 µM | > 45.8 µM
O=S(=O)(O)c1ccc(O)cc1 [4-Phenolsulfonic acid] | > 45.8 µM | > 45.8 µM
CCCc1ccc(C(=O)O)cc1 [4-Propylbenzoic acid] | > 45.8 µM | > 45.8 µM
C(=C\c1ccncc1)/c1ccccc1 [4-Styrylpyridine] | > 45.8 µM | > 45.8 µM
O=C1NC(=O)C(c2ccccc2)(c2ccccc2)N1 [5,5-Diphenylhydantoin] | > 45.8 µM | > 45.8 µM
Cc1ccc2c(Cl)cc(Cl)c(O)c2n1 [5,7-Dichloro-8-hydroxy-2-methylquinoline] | > 45.8 µM | > 45.8 µM
Nc1ccc(O)c(C(=O)O)c1 [5-Aminosalicylic acid] | > 45.8 µM | > 45.8 µM
Cn1sc(Cl)cc1=O [5-Chloro-2-methyl-3(2H)-isothiazolone] | > 45.8 µM | > 45.8 µM
CCCCC[C@H](O)C=C[C@@H]1[C@@H](C/C=C/CCCC(=O)O)[C@H](O)C[C@H]1O [5-trans Prostaglandin F2?] | > 45.8 µM | > 45.8 µM
CC(C)CCC[C@@H](C)[C@H]1CC[C@H]2[C@@H]3CC[C@H]4C[C@@H](O)CC[C@]4(C)[C@H]3CC[C@]12C [5alpha-Cholestan-3beta-ol] | > 45.8 µM | > 45.8 µM

SMILES | IC50 cell viability (ICRF193 0 nM) | IC50 cell viability (ICRF193 200 nM)
CC1(C)S[C@@H]2[C@H](N)C(=O)N2[C@H]1C(=O)O [6-Aminopenicillanic acid] | > 45.8 µM | > 45.8 µM
Cc1cc(O)c(C(C)C)cc1Cl [6-Chlorothymol] | > 45.8 µM | > 45.8 µM
Cn1c(=O)c2[nH]c(Br)nc2n(C)c1=O [8-Bromotheophylline] | > 45.8 µM | > 45.8 µM
Oc1cccc2cccnc12 [8-Quinolinol Salicylic acid (1:1)] | > 45.8 µM | > 45.8 µM
CCCCC/C=C/C/C=C/CCCCCCCC(=O)O [9(E),12(E)-Octadecadienoic acid] | > 45.8 µM | > 45.8 µM
CCCCCC/C=C\CCCCCCCC(=O)O [9(Z)-Hexadecenoic acid] | > 45.8 µM | > 45.8 µM
CCC(=O)Oc1ccc2c(c1)CCC1C2CCC2(C)C(OC(=O)CC)CCC12 (stereo not drawn) [17-BETA-ESTRADIOL 3,17-DIPROPIONATE] | > 45.8 µM | > 45.8 µM
CC(C)[C@H]1CC[C@H](C)C[C@@H]1O [(1S,2R,5S)-(+)-Menthol] | > 45.8 µM | > 45.8 µM
O=C/C=C/c1ccccc1 [(2E)-3-Phenylprop-2-enal] | > 45.8 µM | > 45.8 µM
CCCCCC[C@@H](CCC)C(=O)O [(2R)-2-Propyloctanoic acid] | > 45.8 µM | > 45.8 µM
O=C(O)[C@@H](S)[C@H](S)C(=O)O [(2R,3R)-2,3-Dimercaptosuccinic acid] | > 45.8 µM | > 45.8 µM
CC(C)[C@@H]1CC[C@@H](C)CC1=O [(2S,5R)-5-Methyl-2-(propan-2-yl)cyclohexanone] | > 45.8 µM | > 45.8 µM
Nc1ccc([As](=O)(O)O)cc1 [(4-Aminophenyl)arsonic acid] | > 45.8 µM | > 45.8 µM
C[C@H](O)[C@H](O)[C@H]1CNc2nc(N)[nH]c(=O)c2N1 [(6R)-5,6,7,8-Tetrahydrobiopterin dihydrochloride] | > 45.8 µM | > 45.8 µM
C=C1CC[C@H](O)C/C1=C/C=C1\CCC[C@]2(C)[C@@H]([C@H](C)CC[C@H](O)C(C)(C)O)CC[C@@H]12 [(24S)-24,25-Dihydroxyvitamin D3] | > 45.8 µM | > 45.8 µM
CC(C)=CCN1CC[C@]2(C)c3cc(O)ccc3C[C@H]1[C@H]2C [(+)-Pentazocine succinate] | > 45.8 µM | > 45.8 µM
COc1cc2c3cc1Oc1cc(ccc1O)C[C@@H]1c4c(cc(OC)c(O)c4Oc4ccc(cc4)C[C@@H]3N(C)CC2)CC[N+]1(C)C [(+)-Tubocurarine chloride hydrochloride] | > 45.8 µM | > 45.8 µM
CCN(CC)C(=O)N[C@@H]1C=C2c3cccc4[nH]cc(c34)C[C@@H]2N(C)C1 [(-)-(5S,8R)-Lisuride] | > 45.8 µM | > 45.8 µM
COC(=O)[C@H]1[C@@H](OC(=O)c2ccccc2)C[C@@H]2CC[C@H]1N2C [(-)-Cocaine hydrochloride] | > 45.8 µM | > 45.8 µM
Oc1cc(O)c2c(c1)O[C@H](c1ccc(O)c(O)c1)[C@H](O)C2 [(-)-Epicatechin] | > 45.8 µM | > 45.8 µM
O=c1[nH]cnc2c1ncn2[C@@H]1O[C@H](CO)[C@@H](O)[C@H]1O [(-)-Inosine] | > 45.8 µM | > 45.8 µM

SMILES | IC50 cell viability (ICRF193 0 nM) | IC50 cell viability (ICRF193 200 nM)
COc1cc(CNC(=O)CCCC/C=C/C(C)C)ccc1O [(E)-Capsaicin] | > 45.8 µM | > 45.8 µM
Cc1c(OCC(F)(F)F)ccnc1C[S@@+]([O-])c1nc2ccccc2[nH]1 [(R)-Lansoprazole] | > 45.8 µM | > 45.8 µM
CC[C@@]1(c2ccccc2)NC(=O)N(C)C1=O [(S)-Mephenytoin] | > 45.8 µM | > 45.8 µM
Cn1nnc(-c2ccc(-c3ccc(N4C[C@@H](CO)OC4=O)cc3F)cn2)n1 [(S)-Tedizolid] | > 45.8 µM | > 45.8 µM
CC(C)(C)NC[C@H](O)COc1nsnc1N1CCOCC1 [(S)-Timolol] | > 45.8 µM | > 45.8 µM
Nc1nc(NC2CC2)c2ncn([C@H]3C=C[C@@H](CO)C3)c2n1 [ABACAVIR SULFATE] | > 45.8 µM | > 45.8 µM
CN1CC(O)c2cc(N=NC(=N)N)c(O)cc21 (stereo unspecified) [ADRENOCHROME MONOAMINOGUANIDINE MESILATE ANHYDROUS] | > 45.8 µM | > 45.8 µM
CCOC(=O)[C@H](C)C[C@@H](Cc1ccc(-c2ccccc2)cc1)NC(=O)CCC(=O)O [AHU-377] | > 45.8 µM | > 45.8 µM
NCCCC(O)(P(=O)(O)O)P(=O)(O)O [ALENDRONATE SODIUM] | > 45.8 µM | > 45.8 µM
Cn1c(=O)cc(N2CCC[C@@H](N)C2)n(Cc2ccccc2C#N)c1=O [ALOGLIPTIN BENZOATE] | > 45.8 µM | > 45.8 µM
O=C1c2c(O)cccc2C([C@@H]2O[C@H](CO)[C@@H](O)[C@H](O)[C@H]2O)c2cc(CO)cc(O)c21 (stereo partly specified) [ALOIN] | > 45.8 µM | > 45.8 µM
CC(=O)OCC(=O)[C@@]12OC3(CCCC3)O[C@@H]1C[C@H]1[C@@H]3CCC4=CC(=O)C=C[C@]4(C)[C@@]3(F)[C@@H](O)C[C@@]12C [AMCINONIDE] | > 45.8 µM | > 45.8 µM
CC1(C)S[C@@H]2[C@H](NC(=O)[C@H](N)c3ccccc3)C(=O)N2[C@H]1C(=O)O [AMPICILLIN SODIUM] | > 45.8 µM | > 45.8 µM
OB1OCc2cc(F)ccc21 [AN-2690] | > 45.8 µM | > 45.8 µM
N#Cc1ccc(Oc2ccc3c(c2)COB3O)cc1 [AN-2728] | > 45.8 µM | > 45.8 µM
CN[C@@H]1[C@@H](O[C@H]2O[C@H](CO)[C@@H](N)[C@H](O)[C@H]2O)OC2C[C@@H](N)[C@@H](O[C@H]3[C@H](O)[C@@H](O)[C@H](N)C[C@@H]3N)OC2[C@@H]1O (stereo partly specified) [APRAMYCIN SULFATE] | > 45.8 µM | > 45.8 µM
OCC(O)C(O)C(O)CO (stereo unspecified) [ARABITOL(D)] | > 45.8 µM | > 45.8 µM
CCCCCCCCCCCC(=O)OCN1C(=O)CCc2ccc(OCCCCN3CCN(c4cccc(Cl)c4Cl)CC3)cc21 [ARIPIPRAZOLE LAUROXIL] | > 45.8 µM | > 45.8 µM
Nc1ncnc2c1ncn2[C@@H]1O[C@H](COP(=O)(O)OP(=O)(O)OP(=O)(O)O)[C@@H](O)[C@H]1O [ATP (disodium salt)] | > 45.8 µM | > 45.8 µM
O=C1N=C(N2CCOCC2)CN1c1ccc(Cl)cc1 [AWD 131-138] | > 45.8 µM | > 45.8 µM
CC1(C)S[C@@H]2[C@H](NC(=O)[C@H](NC(=O)N3CCNC3=O)c3ccccc3)C(=O)N2[C@H]1C(=O)O [AZLOCILLIN SODIUM] | > 45.8 µM | > 45.8 µM
